The results in this text go back to patent US20070105162A1, “Monovalent avidin and streptavidin compositions” (Massachusetts Institute of Technology, priority 2005, published 2007).

Data set [1] can be described thus: Electrospray ionization mass spectrometry: biotin molecules bound per streptavidin tetramer. Type of data set: binding. As for the experimental part: Biospin columns (Bio-Rad) were equilibrated by spinning 5 times in 500 μL of 15 mM ammonium acetate pH 7.8 at 1000 g for 2 min. Then 30-50 μL of 30 μM protein in PBS was buffer-exchanged into 15 mM ammonium acetate pH 7.8 using the pre-equilibrated Biospin columns by spinning for 20 s at 1000 g. To ensure that PBS was completely removed, the flow-through was again buffer-exchanged with a second pre-equilibrated column for 20 s. This procedure also removed free biotin when the starting 30 μM streptavidin forms were incubated with 200 μM biotin. Less than 2 min before introducing into the mass spectrometer, the buffer-exchanged samples were diluted with a solution of 1:1 15 mM ammonium acetate pH 7.8 and 78% acetonitrile, 0.01% trifluoroacetic acid.
(§1) An Advion nanospray robot (Advion BioSystems, Ithica, N.Y.) with a back-pressure of 0.45 Psi introduced the samples into the mass spectrometer, an 8.5 Tesla custom-built Electrospray Ionisation-Fourier Transform Mass Spectrometer. To visualize the non-covalent tetramers and non-covalent biotin binding in the high m/z range, the following settings were used: Chirp rate=750 Hz, Amplitude=0.5 V p-p, Tube lens=200 V, Capillary heater 2 V, Quad filter=−20 V, Skimmer=0 V, Capillary offset=34 V, X-fer=−110 V, Leak gas=4.2×10^−5 Torr. The capillary heater was kept low and the Quad filter and Skimmer were kept either high or off to prevent subunit dissociation. The transfer was set to this low value of −110 V in order to visualize the high m/z region.
The masses were calculated manually by first determining the charge state. The final mass was determined by multiplying the observed m/z by the charge and subtracting the mass corresponding to the addition of protons to give that charge. For example, for the 15+charge state of D4 an m/z of 3534.159 was obtained. (15×3534.159)-(15×1.00727) gave a mass for this ion of 52,997 Da. This calculation was repeated for each charge state and the mean and standard deviation reported. The spectra were calibrated with tetrameric streptavidin, after its monomer mass was determined under denaturing conditions (Mr=13,271.4 Da). Average masses were predicted from the DNA sequence, using the ExPASy PeptideMass Calculator (ca.expasy.org/tools/peptide-mass.html) and assuming removal of the N-terminal formyl-Methionine.
The different tetramers were purified using a Ni-nitrilotriacetic acid (NTA) column, eluting according to the number of His6-tags with increasing concentrations of imidazole. […] The tetramer composition was further confirmed by boiling the samples before loading on SDS-PAGE, to determine the ratio of A to D subunits (FIG. 1D), and by electrospray ionization mass spectrometry. In Table 1 (Schwartz, B. L. et al., J. of the Amer. Soc. for Mass Spec. 6: 459-465, 1995) the observed mass (±s.d.), determined by Electrospray Ionization-Mass Spectrometry, is compared to the mass predicted from the sequence. From the change (±s.e.m.) upon addition of biotin (mass 244.31), we determined how many biotin molecules were bound to each tetramer.
Electrospray ionization mass spectrometry was used to characterize the number of biotin molecules bound per tetramer. Spectra of the different streptavidin tetramers with or without biotin were acquired. […] The other chimeric tetramers bound one biotin per A subunit.

Data set [2] can be described thus: Electrospray ionization mass spectrometry: biotin molecules bound per avidin tetramer. The class given is binding. Particulars: spectra with or without biotin. As for the experimental part:
Biospin columns (Bio-Rad) are equilibrated by spinning 5 times in 500 μL of 15 mM ammonium acetate pH 7.8 at 1000 g for 2 min. Then 30-50 μL of 30 μM protein in PBS is buffer-exchanged into 15 mM ammonium acetate pH 7.8 using the pre-equilibrated Biospin columns by spinning for 20 s at 1000 g. To ensure that PBS is completely removed, the flow-through is again buffer-exchanged with a second pre-equilibrated column for 20 s. This procedure also removes free biotin when the starting 30 μM avidin forms are incubated with 200 μM biotin. Less than 2 min before introducing into the mass spectrometer, the buffer-exchanged samples are diluted with a solution of 1:1 15 mM ammonium acetate pH 7.8 and 78% acetonitrile, 0.01% trifluoroacetic acid.
as §1, with “introduces” for “introduced”, “are” for “were”, “is” for “was”
The masses are calculated manually by first determining the charge state. The final mass is determined by multiplying the observed m/z by the charge and subtracting the mass corresponding to the addition of protons to give that charge. This calculation is repeated for each charge state and the mean and standard deviation reported. The spectra are calibrated with tetrameric avidin, after its monomer mass is determined under denaturing conditions. […]

Data set [3] can be described thus: Off-rate of 3H-biotin from streptavidin (cold biotin chase). The class given is binding. Particulars: 50 μM cold biotin chase, 5 hours at 37° C., ± s.e.m. The procedure:
(Green, N. M. Methods in Enzymol. 184: 51-67, 1990). Dissociation was then initiated by addition of cold biotin at a final concentration of 50 μM and time-points taken over 5 hours at 37° C. 50 μL aliquots were removed and added to 200 μL 0.2M ZnSO4 chilled on ice, followed by 200 μL 0.2 M NaOH. The protein precipitate was pelleted by centrifugation at 16,500 g for 5 min, and ^3H-biotin in the supernatant was measured by liquid scintillation counting. Data were plotted as ln(fraction bound) versus time, and fit to a straight line by linear regression. Dissociation rates were deduced from the slope of the line and the equation: ln(fraction bound)=−koff(t) where fraction bound=(total ^3H-biotin−free ^3H-biotin at timepoint)/(total ^3H-biotin−free ^3H-biotin before cold biotin chase).

The subject of data set [4] is biotinylated AP-CFP-TM on HeLa cells. The experiment in a line: Staining of biotinylated AP-CFP-TM on HeLa with Alexa Fluor 568-conjugated streptavidins. The class given is cell-based. Particulars: Alexa Fluor 568 conjugate 10 μg/mL, 10 min at 4° C. The procedure:
Enzymatic biotinylation and imaging of HeLa transfectants were performed as previously described (Howarth, M. et al., Proc. Natl. Acad. Sci. USA 102: 7583-7588, 2005), except instead of 10 μM biotin and 1 mM ATP, we added 10 μM biotin-AMP (synthesized according to Coleman and Huang; Coleman, T. M. and Huang, F. Chem. Biol. 9: 1227-1236, 2002) to give equivalent biotinylation but minimizing the risk of purinoreceptor activation by ATP (Rathbone, M. P. et al., Prog. Neurobiol. 59: 663-690, 1999). […] Biotinylation of neurons was performed at day in vitro (DIV) 8 in Hanks' Balanced Salt Solution (HBSS) (Invitrogen) with 0.2 μM biotin ligase and 10 μM biotin-AMP for 5 min at 37° C. […] Neurons were washed with NeuroBasal media (Invitrogen) supplemented with B-27 (Invitrogen), 50 U/mL penicillin, 50 μg/mL streptomycin, and 0.2 mM L-glutamine and chased in the same medium for 0 or 2 hr at 37° C. Cells were then fixed in −20° C. methanol. […]
Images of HeLa cells were collected on a Zeiss Axiovert 200M inverted epifluorescence microscope using a 40× oil-immersion lens and a MicroMAX CCD camera (Roper Scientific; Tucson, Ariz.). CFP (420DF20 excitation, 450DRLP dichroic, 475DF40 emission) and Alexa568 (560DF20 excitation, 585DRLP dichroic, 605DF30 emission) images were collected and analyzed using OpenLab software (Improvision; Lexington, Mass.). Fluorescence images were background-corrected. […] Images were scaled to 16 bits and analyzed in Northern Eclipse (Empix Imaging; Ontario, Canada) with user-written software. […] Results were then calculated in terms of clusters per micrometer of dendrite. For assessment of pre-synaptic terminals, clusters were determined as before and average grey levels of clusters were compared between transfected dendrites and untransfected dendrites within the same field of view. […] “n” represents the number of transfected neurons for which clusters were measured. […]

The subject of data set [5] is biotinylated AP-neuroligin-1 on hippocampal neurons. Description: AP-neuroligin-1 clustering in hippocampal neurons labeled with streptavidin. To be noted: two hour incubation at 37° C., Alexa Fluor 568 conjugate; ± s.e.m., n=9. Type of data set: cell-based, rat. The procedure: HeLa cells were grown in Dulbecco's Modified Eagle Medium (DMEM) with 10% Fetal Calf Serum, 50 U/mL penicillin and 50 μg/mL streptomycin. HeLa stably expressing AP-CFP-TM or Ala-CFP-TM have been previously described (Howarth, M. et al., Proc. Natl. Acad. Sci. USA 102: 7583-7588, 2005). Dissociated primary neuronal cultures were prepared from Embryonic Day 18 or 19 (E18/19) rats and transfected with Lipofectamine 2000 at DIV6 as in Levinson et al. (Levinson, J. N. et al., J. Biol. Chem. 280: 17312-17319, 2005). […]
Images of HeLa cells were collected on a Zeiss Axiovert 200M inverted epifluorescence microscope using a 40× oil-immersion lens and a MicroMAX CCD camera (Roper Scientific; Tucson, Ariz.). CFP (420DF20 excitation, 450DRLP dichroic, 475DF40 emission) and Alexa568 (560DF20 excitation, 585DRLP dichroic, 605DF30 emission) images were collected and analyzed using OpenLab software (Improvision; Lexington, Mass.). Fluorescence images were background-corrected. […] Images were scaled to 16 bits and analyzed in Northern Eclipse (Empix Imaging; Ontario, Canada) with user-written software. […] Results were then calculated in terms of clusters per micrometer of dendrite. For assessment of pre-synaptic terminals, clusters were determined as before and average grey levels of clusters were compared between transfected dendrites and untransfected dendrites within the same field of view. […]

Regarding “A4: Wild-type streptavidin with a His6-tag, four Alive subunits (SEQ ID NO:4) [Tetramer A4]”, the “# biotins (bound to each tetramer)” value in data set [1] (from mass change upon addition of biotin, 30 μM protein, 200 μM biotin) is listed as 4. For the same substance, the “biotin binding per tetramer by mass spectrometry (in words)” value in data set [1] (spectra with or without biotin) was “all four subunits”. For the same substance, the “biotin binding per avidin tetramer by mass spectrometry (in words)” value in data set [2] was “all four subunits”.
Consider “wild-type streptavidin: Wild-type core streptavidin tetramer with 4 biotin binding sites (SEQ ID NO:2) [reference compound]”, for which the off-rate from biotin in data set [3] is listed as 5.17±0.25×10^−5 s^−1. Further, the “Alexa staining of biotinylated AP-CFP-TM” value in data set [4] is reported as “detected equally well”. For the same substance, the “AP-neuroligin-1 clusters per micrometer of dendrite” value in data set [5] amounted to 0.266±0.011 clusters/μm.
